Results from paper PMC11459959, “Discovery of new acetamide derivatives of 5-indole-1,3,4-oxadiazol-2-thiol as inhibitors of HIV-1 Tat-mediated viral transcription” (Antimicrobial Agents and Chemotherapy, 2024).

Columns and labels:
[1] = tested on: reverse transcription of the infected virus; assay: Viral reverse transcription product (viral cDNA) in infected A3.01 cells, RT-qPCR; assay type: cell-based, HIV-1; details: 1.5 µM, 16 h after infection
Method: (§1) Fig 5 (A) Time-of-addition assay. […] Subsequently, the cells were treated with the compounds at the indicated time points (0, 1, 2, 4, 6, 8, 10, 12, 24, 30, 36, 42, and 48 h) after HIV-1 infection. The final concentrations of compounds are described in Materials and Methods. Viral activity according to the timing of drug addition was measured as F-Luc activity at 54 h after infection. The relative activities are represented as the mean ± SD (n = 3) compared with the activity observed 54 h post-infection. The relative time frames associated with each HIV-1 infection step are defined based on the time frame of susceptibility to the drug that blocks that particular infection step. […] At 16 h after infection, the viral reverse transcription (RT) product (viral cDNA) level was determined by quantitative real-time PCR (RT-qPCR) using gag and 18S rRNA primer sets and represented as the mean ± SD (n = 3) normalized against the amount of the 18S rRNA compared with the DMSO control. **P < 0.01 compared with the vehicle (DMSO). […] At 40 h after infection, cellular chromosomal DNA was purified, and the integrated proviral DNA was detected through nested Alu-PCR amplification.
(§2) The activity of HIV-1 RT was determined as previously described with some minor modifications ([66][–][68]). […] The relative levels of RT products were analyzed using the ΔΔCt-method, as described above. […]

HIV-1 transcripts = assay: RNA-seq of HIV-1 transcripts in infected TZM-bl cells; assay type: cell-based; details: HIV-1NL4-3 MOI 1, 1.5 µM, 2 days
Method: At 48 h after infection, the total RNA was extracted using the Maxwell RSC simplyRNA Cells Kit (Promega) according to the manufacturer’s instructions. RNA integrity was evaluated as RNA integrity number >6 using the Agilent 2100 Bio-analyzer (Agilent Technologies, Santa Clara, CA, USA). The cDNA libraries were constructed using TruSeq Stranded mRNA Sample Preparation Kit (Illumina, San Diego, CA, USA) according to the manufacturer’s instructions. Subsequently, these cDNA libraries were sequenced on the Illumina sequencing platform (NovaSeq6000; Illumina) and 150 bp paired-end reads were generated. Trimmomatic (v.0.32) was used to eliminate low-quality reads and adapter sequences from the sequencing data ([64]). Subsequently, the filtered reads were aligned to the HIV-1 genome (accession: AF324493.2) using STAR (v.2.3.0) ([65]). RT-qPCR analyses were performed as previously described ([66]) with some minor modifications. […] After infection, the infected cells were treated with 1.5 µM of the compounds. Forty-eight hours after treatment, the viral mRNA was isolated, converted to cDNA, and quantified through RT-qPCR on a 7500 Real-Time PCR System (Applied Biosystems) using the Power SYBR Green PCR Master Mix (Applied Biosystems). The comparative cycle threshold (Ct) method was used to analyze relative changes (Δ) in gene expression. The ΔCt values were determined using a 7500 Real-Time PCR System Software (Applied Biosystems) normalizing with gapdh, and the gene expression was calculated using the ΔΔCt-method. The primers used in this assay are the following: gag forward, 5′-[…]-3′, gag reverse, 5′-[…]-3′; gapdh forward, 5′-[…]-3′, gapdh reverse, 5′-[…]-3′.

CDK9/Cyclin T = molecular target: T1, CDK9/Cyclin T (Homo sapiens, UniProt P50750); assay: CDK9/Cyclin T kinase assay; assay type: biochemical; details: in vitro kinase kit, serial dilutions
T1 construct: purchased BPS Bioscience
T1 sequence (P50750 whole entry): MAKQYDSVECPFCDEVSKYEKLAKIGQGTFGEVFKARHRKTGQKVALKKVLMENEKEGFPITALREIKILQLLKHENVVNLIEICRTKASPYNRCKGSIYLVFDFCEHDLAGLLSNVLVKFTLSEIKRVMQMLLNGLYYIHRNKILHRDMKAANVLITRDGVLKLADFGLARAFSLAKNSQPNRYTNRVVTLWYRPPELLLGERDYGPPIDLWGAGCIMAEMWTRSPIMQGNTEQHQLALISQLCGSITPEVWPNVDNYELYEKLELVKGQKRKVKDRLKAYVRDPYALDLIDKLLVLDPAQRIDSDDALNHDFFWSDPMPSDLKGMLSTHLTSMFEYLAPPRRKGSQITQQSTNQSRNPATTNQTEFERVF
T1 sequence (O60563 whole entry partner): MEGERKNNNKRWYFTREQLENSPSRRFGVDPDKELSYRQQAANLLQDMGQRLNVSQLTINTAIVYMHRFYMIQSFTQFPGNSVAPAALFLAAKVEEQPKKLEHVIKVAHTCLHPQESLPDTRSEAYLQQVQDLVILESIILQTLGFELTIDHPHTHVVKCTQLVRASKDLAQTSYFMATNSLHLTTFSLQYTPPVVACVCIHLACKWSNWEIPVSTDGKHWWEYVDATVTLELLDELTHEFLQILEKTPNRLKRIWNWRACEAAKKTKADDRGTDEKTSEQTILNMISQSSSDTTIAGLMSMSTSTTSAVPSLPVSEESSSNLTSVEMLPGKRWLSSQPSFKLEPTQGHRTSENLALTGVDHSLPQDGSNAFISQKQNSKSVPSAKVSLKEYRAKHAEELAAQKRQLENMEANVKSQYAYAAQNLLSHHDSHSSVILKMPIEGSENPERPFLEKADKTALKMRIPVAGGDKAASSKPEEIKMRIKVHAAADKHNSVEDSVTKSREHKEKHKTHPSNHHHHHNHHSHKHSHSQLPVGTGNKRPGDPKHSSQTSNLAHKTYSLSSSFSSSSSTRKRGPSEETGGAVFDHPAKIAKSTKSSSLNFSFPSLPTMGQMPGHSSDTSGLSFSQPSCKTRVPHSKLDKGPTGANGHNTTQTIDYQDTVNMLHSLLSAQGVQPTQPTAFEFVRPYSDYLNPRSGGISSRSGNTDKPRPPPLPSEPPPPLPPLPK
Method: In brief, 12.5 µL of the Master Mix (Kinase Assay Buffer 1 supplemented with ATP and CDK Substrate Peptide 2) was mixed with 2.5 µL of each test compound diluted serially. The mixture was then mixed with CDK9/Cyclin T Kinase (50 ng/10 µL diluted in 1× Kinase Assay Buffer 1) and incubated for 45 min. The kinase activity was measured using Kinase-Glo Max (Promega). A decreased level of luminescence relative to ATP concentration indicated kinase activity, which was expressed as the percent of DMSO control.

HIV-1 integrase = molecular target: T2, HIV-1 integrase (Human immunodeficiency virus type 1 group M subtype B, UniProt P04585); assay: In vitro integrase assay; assay type: biochemical; details: 10 µM
T2 construct: purchased XpressBio
Method: as §1, §2

HIV-1NL4-3 = assay: HIV-1 infectivity in TZM-bl cells (β-gal activity); assay type: cell-based; details: Human immunodeficiency virus 1, TZM-bl, 48 h, read-out: EC50 (β-gal)
Method: (C) TZM-bl cells were infected with the HIV-1NL4-3 strain at an MOI of 1 upon treatment of compounds. At 48 h after infection, the viral infectivity and cell viability were determined as described above (Fig. 1). […] (E) TZM-bl cells were infected with the HIV-1NL4-3 at an MOI of 1 upon compound 13. At 48 h after infection, the β-gal activity indicating viral infectivity was determined using the β-gal Enzyme Assay kit. […] (C and E) The dose-response curves show the relative activity compared with that of the DMSO vehicle (mean ± SD; n = 3).
The TZM-bl cells (also referred to as JC53BL-13) expressing human CD4, CXCR4, and CCR5 carrying the F-Luc and lacZ genes downstream of the HIV-1 LTR promoter ([60]) were used to determine the inhibitory effect of the compounds on HIV-1 infection, as previously described ([11], [12], [61]). In brief, 1 × 10^4 cells were cultured in 96-well plates for 24 h and subsequently treated with compounds at the indicated concentrations. […] After 48 h, the inhibitory effect of the compounds was determined using a Bright Glo luciferase assay kit (Promega) or β-Galactosidase Enzyme Assay kit (Promega). […] Cell viability was determined using the resazurin-based PrestoBlue Cell Viability Reagent (Thermo Fisher Scientific, Waltham, MA, USA) following the manufacturer’s instructions.

Row | Structure (SMILES) | inhibitory effect on reverse transcription of the infected virus [1] | read counts of transcripts mapped to the HIV-1 genome (HIV-1 transcripts) | inhibition of CDK9/Cyclin T kinase activity (CDK9/Cyclin T) | inhibitory effect on in vitro integrase activity (HIV-1 integrase) | EC50 (HIV-1NL4-3)
1 | Cc1[nH]c2ccc(-c3nnc(SCC(=O)N4CCCCC4)o3)cc2c1C [Compound 9, 2-((5-(2,3-Dimethyl-1H-indol-5-yl)-1,3,4-oxadiazol-2-yl)thio)-1-(piperidin-1-yl)ethan-1-one] | did not exhibit the inhibitory effect | substantially reduced | did not exhibit | did not exhibit the inhibitory effect | 
2 | Cc1[nH]c2ccc(-c3nnc(SCC(=O)N4CCCC4)o3)cc2c1C [Compound 13, 2-((5-(2,3-Dimethyl-1H-indol-5-yl)-1,3,4-oxadiazol-2-yl)thio)-1-(pyrrolidin-1-yl)ethan-1-one] | did not exhibit the inhibitory effect | substantially reduced | did not exhibit | did not exhibit the inhibitory effect | 220 ± 30 nM
